# Measurements published in patent US6762202B2, “Infrared thermography and methods of use” (NitroMed, Inc., priority 2000, dated 2004).
# Columns and labels:
# labia and clitoris = test: Infrared thermographic measurement of labial/clitoral temperature after topical administration; type: in vivo, Female white New Zealand rabbits; details: for temperature of the labia and clitoris following the application: 50 μL
# Method: Female white New Zealand rabbits were anaesthetized with pentobarbitol sodium and placed in a supine position on a warming pad. The warming pad was connected to a temperature control unit to maintain the core (rectal) temperature to 38° C. The labia and clitoris were exposed and kept in position by taping the surrounding skin to the nearby abdominal area. The infrared camera (THERMACAM® SC 1000, Inframetrics Inc., North Billerica, Mass.) was focused on the labia and clitoris and the animal was covered with a chamber to maintain the heat loss due to air movement.
# After a steady baseline temperature was maintained and recorded for at least 10 minutes the compound (50 μL) was applied to the surface of the labia and clitoris using a syringe and 27 G needle. The compound was formulated in a mixture of dimethyl sulfoxide (25%) and poly(ethylene glycols) (75%). The poly(ethylene glycols) was a mixture of poly(ethylene glycol) 1450 and poly(ethylene glycol) 400 in a ratio of 1:9 respectively.
# The images from the infrared camera were electronically transferred to a PC computer and analyzed using TherMonitor 95, version 1.61 (Thermoteknix System Ltd., Mount pleasant,Cambridge, U. K.). Various color scales in the visible wave length are used to depict the temperature change of the recorded images.
# labial blood flow = test: Laser doppler measurement of labial/clitoral blood flow after topical administration; type: in vivo, Female white New Zealand rabbits; details: 5% or 10%, 50 μL topical in MIGLYOL; laser doppler probe; FIG. 6
# Method: Female white New Zealand rabbits were anaesthetized with Ketamine/Xylazine mixture and placed in supine position. A laser doppler probe (LASERFLO, BPM 403, Vasamedics, Inc., Minn.) was placed at the labium surface, and after steady baseline blood flow was maintained and recorded for at least 10 minutes, Example 5 (5%, 50 μL), 10% of Example 7 (10%, 50 μL), or vehicle alone (50 μL, MIGLYOL®) was applied to the surface of the labia and clitoris. […] The time course for the increase in blood flow (FIG. 6) was very similar to the time course for the increase in labial clitoral temperature (FIG. 5).
smiles,measurement,setting,value
"CC(C)(CN1C(=O)C2C3C=CC(C3)C2C1=O)SN=O (centres unmarked) [Example 1, 4-Aza-4-(2-methyl-2-(nitrosothio)propyl)tricyclo(5.2.1.0<2,6>)dec-8-ene-3,5-dione]",temperature of the labia and clitoris following the application,"labia and clitoris; 5% topical, ~32° C. prior to application, FIG. 3, vehicle gave no increase",35 °C
"CC(C)(SN=O)C1COC(=O)N1 (centres unmarked) [Example 2, 4-(1-Methyl-1-(nitrosothio)ethyl)-1,3-oxazolidin-2-one]",temperature of the labia and clitoris following the application,"labia and clitoris; 10% topical, ~32° C. prior to application, FIG. 4",36 °C
same,melting point,,65 °C
"N[C@@H](CCC(=O)N[C@@H](CSN=O)C(=O)NCC(=O)O)C(=O)O [Example 7, N-(N-L-y-glutamyl-S-Nitroso-L-cysteinyl)glycine]",change of labial clitoral temperature,"labia and clitoris; 2.5%, 50 μL topical in MIGLYOL, FIG. 5",slight and transient increase
same,increase of temperature of the labia and clitoris,"labia and clitoris; 5%, 50 μL topical in MIGLYOL, FIG. 5",3.5 °C
same,increase of temperature of the labia and clitoris,"labia and clitoris; 10%, 50 μL topical in MIGLYOL, FIG. 5",5.5 °C
same,duration of sustained increase in labial blood flow,labial blood flow,> 60 min
same,increase in labial blood flow as compared to the baseline,labial blood flow,4 fold
"CC(C)CON=O [isobutyl nitrite, reference compound]",temperature of the labia and clitoris following the application,"labia and clitoris; 10% topical, ~30° C. prior to application, FIG. 1, vehicle gave no increase",32 °C
same,temperature of the labia and clitoris following the application,"labia and clitoris; 20% topical, ~31° C. prior to application, FIG. 2, vehicle gave no increase",34 °C
"CNC[C@H](O)c1cccc(O)c1 [phenylephrine, reference compound]",temperature after addition of the vasoconstrictor (decrease),"labia and clitoris; 10% applied 60 minutes after Example 2 (10%), monitored for 5 minutes, decrease from 36° C., FIG. 4",32 °C
